Source: patent US9409884B2 (Rigel Pharmaceuticals, Inc., priority 2012, dated 2016)

target: AMPK; experiment: AMPK activation, enzyme-linked immunosorbent assay; format: biochemical; conditions: Table 10, compounds of Table 3
Outline: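 Read-out: ELISA, used to detect compound-driven activation of AMPK.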

| SMILES | EC50 [nM] |
| --- | --- |
| N#Cc1ccc(CN2CCC(NC(=O)c3nc4ccc(OC5CCN(c6ccc(C(F)(F)F)cc6)CC5)cc4s3)CC2)cc1 [Compound 3-16, N-(1-(4-cyanobenzyl)piperidin-4-yl)-6-(1-(4-(trifluoromethyl)phenyl)piperidin-4-yloxy)benzo[d]thiazole-2-carboxamide] | 100 to 1000 |
| CC(C)(C)OC(=O)N1CCC(NC(=O)c2cnc(OC3CCN(c4ccc(C(F)(F)F)cc4)CC3)cn2)CC1 [Compound 3-19, tert-butyl 4-(5-(1-(4-(trifluoromethyl)phenyl)piperidin-4-yloxy)pyrazine-2-carboxamido)piperidine-1-carboxylate] | 1000 to 10000 |
| CC(C)(C)OC(=O)N1CCC(Oc2ncc(C(=O)NC3CCN(Cc4ccc(C#N)cc4)CC3)s2)CC1 [Compound 3-26, tert-butyl 4-(5-(1-(4-cyanobenzyl)piperidin-4-ylcarbamoyl)thiazol-2-yloxy)piperidine-1-carboxylate] | 1000 to 10000 |
| N#Cc1ccc(CN2CCC(NC(=O)c3ccc(C(=O)N4CCN(c5ccc(Cl)cc5)CC4)cc3)CC2)cc1 [Compound 3-29, 4-(4-(4-chlorophenyl)piperazine-1-carbonyl)-N-(1-(4-cyanobenzyl)piperidin-4-yl)benzamide] | 10000 to 100000 |
| N#Cc1ccc(CN2CCC(NC(=O)c3ccc(C(=O)NC4CCN(c5ccccc5)CC4)cc3)CC2)cc1 [Compound 3-32, N^1-(1-(4-cyanobenzyl)piperidin-4-yl)-N^4-(1-phenylpiperidin-4-yl)terephthalamide] | 10000 to 100000 |
| N#Cc1ccc(CN2CCC(NC(=O)c3ccc(C(=O)NC4CCN(Cc5ccccc5)CC4)cc3)CC2)cc1 [Compound 3-33, N^1-(1-benzylpiperidin-4-yl)-N^4-(1-(4-cyanobenzyl)piperidin-4-yl)terephthalamide] | 10000 to 100000 |
| O=C(NC1CCN(Cc2cccnc2)CC1)c1ccc2c(c1)CN(Cc1ccc(F)cc1)CC2 [Compound 3-35, 2-(4-fluorobenzyl)-N-(1-(pyridin-3-ylmethyl)piperidin-4-yl)-1,2,3,4-tetrahydroisoquinoline-7-carboxamide] | 1000 to 10000 |
| O=C(NC1CCN(Cc2ccc(C(F)(F)F)cc2)CC1)c1ccc2c(c1)CN(Cc1ccc(F)cc1)CC2 [Compound 3-36, 2-(4-fluorobenzyl)-N-(1-(4-(trifluoromethyl)benzyl)piperidin-4-yl)-1,2,3,4-tetrahydroisoquinoline-7-carboxamide] | 100 to 1000 |
| N#Cc1ccc(CN2CCc3ccc(C(=O)NC4CCN(Cc5ccc(C(F)(F)F)cc5)CC4)cc3C2)cc1 [Compound 3-39, 2-(4-cyanobenzyl)-N-(1-(4-(trifluoromethyl)benzyl)piperidin-4-yl)-1,2,3,4-tetrahydroisoquinoline-7-carboxamide] | 1000 to 10000 |

Next, values leading:

| EC50 [nM] | SMILES |
| --- | --- |
| < 100 | O=C(NC1CCN(Cc2ccncc2)CC1)c1cn2ccc(OC3CCN(c4ccc(C(F)(F)F)cc4)CC3)cc2n1 [Compound 3-17, N-(1-(pyridin-4-ylmethyl)piperidin-4-yl)-7-(1-(4-(trifluoromethyl)phenyl)piperidin-4-yloxy)imidazo[1,2-a]pyridine-2-carboxamide] |
| < 100 | N#Cc1ccc(CN2CCC(NC(=O)c3cn4ccc(OC5CCN(c6ccc(C(F)(F)F)cc6)CC5)cc4n3)CC2)cc1 [Compound 3-18, N-(1-(4-cyanobenzyl)piperidin-4-yl)-7-(1-(4-(trifluoromethyl)phenyl)piperidin-4-yloxy)imidazo[1,2-a]pyridine-2-carboxamide] |
| < 100 | O=C(NC1CCN(Cc2ccncc2)CC1)c1cnc(OC2CCN(c3ccc(C(F)(F)F)cc3)CC2)cn1 [Compound 3-21, N-(1-(pyridin-4-ylmethyl)piperidin-4-yl)-5-(1-(4-(trifluoromethyl)phenyl)piperidin-4-yloxy)pyrazine-2-carboxamide] |
| < 100 | N#Cc1ccc(CN2CCC(NC(=O)c3cnc(OC4CCN(c5ccc(C(F)(F)F)cc5)CC4)cn3)CC2)cc1 [Compound 3-22, N-(1-(4-cyanobenzyl)piperidin-4-yl)-5-(1-(4-(trifluoromethyl)phenyl)piperidin-4-yloxy)pyrazine-2-carboxamide] |
| < 100 | N#Cc1ccc(CN2CCC(NC(=O)c3cnc(OC4CCN(c5ccc(C(F)(F)F)cc5)CC4)s3)CC2)cc1 [Compound 3-23, N-(1-(4-cyanobenzyl)piperidin-4-yl)-2-(1-(4-(trifluoromethyl)phenyl)piperidin-4-yloxy)thiazole-5-carboxamide] |
| < 100 | N#Cc1ccc(CN2CCC(NC(=O)c3cnc(OC4CCN(c5ccc(C#N)cc5)CC4)s3)CC2)cc1 [Compound 3-24, N-(1-(4-cyanobenzyl)piperidin-4-yl)-2-(1-(4-cyanophenyl)piperidin-4-yloxy)thiazole-5-carboxamide] |
| < 100 | N#Cc1ccc(CN2CCC(NC(=O)c3cnc(OC4CCN(Cc5ccc(C(F)(F)F)cc5)CC4)s3)CC2)cc1 [Compound 3-25, N-(1-(4-cyanobenzyl)piperidin-4-yl)-2-(1-(4-(trifluoromethyl)benzyl)piperidin-4-yloxy)thiazole-5-carboxamide] |
| < 100 | N#Cc1ccc(CN2CCC(NC(=O)c3ccc(C(=O)N4CCN(Cc5ccc(Cl)cc5)CC4)cc3)CC2)cc1 [Compound 3-28, 4-(4-(4-chlorobenzyl)piperazine-1-carbonyl)-N-(1-(4-cyanobenzyl)piperidin-4-yl)benzamide] |
| < 100 | N#Cc1ccc(CN2CCC(NC(=O)c3ccc(C(=O)N4CCN(c5ccc(C(F)(F)F)cn5)CC4)cc3)CC2)cc1 [Compound 3-30, N-(1-(4-cyanobenzyl)piperidin-4-yl)-4-(4-(5-(trifluoromethyl)pyridin-2-yl)piperazine-1-carbonyl)benzamide] |
| < 100 | N#Cc1ccc(CN2CCC(NC(=O)c3ccc(C(=O)NC4CCN(Cc5ccc(C(F)(F)F)cc5)CC4)cc3)CC2)cc1 [Compound 3-31, N^1-(1-(4-cyanobenzyl)piperidin-4-yl)-N^4-(1-(4-(trifluoromethyl)benzyl)piperidin-4-yl)terephthalamide] |
| < 100 | N#Cc1ccc(CN2CCC(NC(=O)c3ccc4c(c3)CN(Cc3ccc(F)cc3)CC4)CC2)cc1 [Compound 3-34, N-(1-(4-cyanobenzyl)piperidin-4-yl)-2-(4-fluorobenzyl)-1,2,3,4-tetrahydroisoquinoline-7-carboxamide] |
| < 100 | N#Cc1ccc(CN2CCC(NC(=O)c3ccc4c(c3)CN(Cc3ccc(C#N)cc3)CC4)CC2)cc1 [Compound 3-37, 2-(4-cyanobenzyl)-N-(1-(4-cyanobenzyl)piperidin-4-yl)-1,2,3,4-tetrahydroisoquinoline-7-carboxamide] |
| < 100 | N#Cc1ccc(CN2CCc3ccc(C(=O)NC4CCN(Cc5cccnc5)CC4)cc3C2)cc1 [Compound 3-38, 2-(4-cyanobenzyl)-N-(1-(pyridin-3-ylmethyl)piperidin-4-yl)-1,2,3,4-tetrahydroisoquinoline-7-carboxamide] |

same assay, conditions: Table 11, compounds of Table 4

| EC50 [nM] | SMILES |
| --- | --- |
| < 500 | N#Cc1ccc(CN2CCC(NC(=O)c3ccc(C(=O)N4CCN(Cc5ccc(C#N)cc5)CC4)cn3)CC2)cc1 [Compound 4-1, 5-(4-(4-cyanobenzyl)piperazine-1-carbonyl)-N-(1-(4-cyanobenzyl)piperidin-4-yl)picolinamide] |
| < 500 | N#Cc1ccc(CN2CCC(NC(=O)c3ccc(C(=O)N4CCN(Cc5ccc(F)cc5)CC4)cn3)CC2)cc1 [Compound 4-2, N-(1-(4-cyanobenzyl)piperidin-4-yl)-5-(4-(4-fluorobenzyl)piperazine-1-carbonyl)picolinamide] |
